# According to patent EP1095657A2, “Compositions for the regulation of cytokine activity” (priority 1992, dated 1994):
# Read-outs that look alike come from different tables or passages of the source.
# How the values were obtained:
# [1] = system: experimental DTH reaction in mice; assay: In vivo bioassay of inhibition of experimental DTH reactivity (oxazolone ear swelling); design: species or system mice (BALB/c or CD1); conditions: CD1 mice, s.c.
# Procedure: Groups of inbred BALB/c (Jackson Laboratories, Bar Harbor, ME) or of outbred CD1 (Weizmann Institute Animal Breeding Center, Rehovot, Israel) mice are sensitized on the shaved abdominal skin with 100 µl of 2% oxazolone (OX) in acetone/olive oil (4/1, v/v) applied topically. DTH sensitivity is elicited 5 days later as follows: mice are challenged with 20 µl of 0.5% OX (10 µl administered topically to each side of the ear) in acetone/olive oil. A constant area of the ear is measured immediately before challenge and 24 and 48 h later with a Mitutoyo engineer's micrometer. The individual measuring ear swelling is blinded to the identity of the groups of mice. The increment (△) of ear swelling is expressed as the mean in units of 10^-2 mm or 10^-4 inch (+SE) depending on the micrometer that is used. Percent inhibition is calculated as follows: %Inhibition= 1-((Treated-negative control)/(positive control-negative control)) [formula]
# Mice are treated with LMWH as in Example 5.1, injected the day before primary sensitization to OX. On the fifth day after sensitization to OX, the mice are challenged to induce a DTH reaction, as described above.
# The positive control is the DTH reaction elicited in immunized mice in the absence of treatment with LMWH. The negative control is the background swelling produced by the antigen in naive (non-immunized) mice.
# BALB/c mice (at least 5 mice per group) were sensitized on the shaved abdomen with 3% 4-ethoxymethylene-2-phenyl oxazolone (OX; BDH Chemicals, GB) in acetone/olive oil applied topically. DTH sensitivity was elicited 5 days later as follows. Mice were challenged with 0.5% OX in acetone/olive oil. The ear was measured immediately before challenge and 24 h later with Mitutoyo engineer's micrometer (Japan). The individual measuring the swelling of the ear was blinded to the identity of the groups of mice. To interfere with DTH response, the low molecular weight immuno-regulatory fractions, diluted in PBS, were administrated subcutaneously into the back of the treated mice at the indicated time schedules and concentrations. Treated mice were inspected during and after (>2 months) the treatment and no major side-effects were observed clinically.
# In particular, CD1 mice (available from the Weizmann Institute Animal Breeding Center, Rehovot, Israel), 4-12 mice per group, were treated as described in Section 5.2 or 6.8.
# IDDM of NOD mice = assay: Insulin dependent diabetes mellitus (IDDM) of NOD mice; format: in vivo
# [2] = system: mortality after gamma irradiation; assay: Radioprotective effect in gamma-irradiated mice; format: in vivo, BALB/c mice
# Procedure: Groups of female BALB/c mice, 8 weeks old, 5-10 mice per group, were injected subcutaneously with either saline (0.1 ml, control), H-9392 (30 ng/mouse), or glucosamine (10,000 ng/mouse) 1 day before irradiation, and weekly thereafter until termination of the experiment on day 30. All the mice were irradiated to a dose of 700 rads using a ^60Co gamma radiation source.
# In a separate experiment, groups of BALB/c mice (5 mice to a group) were likewise exposed to 750 rads of gamma-rays, except that these groups of mice were treated with test substances (saline at 0.1 ml per mouse; H-9392 at 0.3, 3, 30 and 300 ng/mouse; and glucosamine at 1, 10 and 100 µg/mouse) on the day before irradiation, on the sixth day after irradiation, and once again on the thirteenth day after irradiation only. All treatment ceased after the third and last administration.
# [3] = system: C57BL/6 skin grafts on BALB/c mice; assay: Skin allograft rejection in mice; format: in vivo
# Procedure: The effect of H-9392 was also tested in skin graft rejection experiments in mice. In particular, skin grafts from C57BL/6 donor mice (H-2^b) were applied to recipient BALB/c mice (H-2^d) according to the method of Baharav, E. et al. J. Immunol. Methods (1986) 90:143-144. The number of days to rejection was measured by the sloughing of the graft. The number of days to rejection was determined for a control group (injected with saline only, 0.1 ml), and test groups that received 3 ng or 300 ng of H-9392 by subcutaneous injection one day before grafting and weekly thereafter. The results, which are graphically represented in FIGS. 40 and 40A, reveal that the 3 ng/mouse dose delayed the level of skin graft rejection at 50% by 5 days!
# LPS-induced uveitis = conditions: for Median Protein: LPS with saline 18.4, no LPS 0.36
# ELAM-1 = assay: TNF-α-induced expression of adhesion molecules by endothelial cells (ELISA); conditions: for Recombinant human TNFα-induced adhesion molecules (O.D 492): 1 h pretreatment of EC, TNFα alone 1.2±0.1
# ICAM-1 = assay: as above; conditions: 1 h pretreatment of EC, TNFα alone 2.2±0.2
# [4] = system: secretion of active TNF-α by activated human CD4+ T cells; assay: Bioassay of TNF-α activity using human CD4+ T cells derived from PBLs (human PBL bioassay); conditions: conc range of 1 µg/ml - 0.01 pg/ml; inconsistent = not the same result in all three bioassays
smiles,measurement,setting,value
"O=C(O)C1=C[C@H](O)[C@@H](OS(=O)(=O)O)[C@H](O[C@H]2[C@H](O)[C@@H](NS(=O)(=O)O)C(O)O[C@@H]2CO)O1 (stereo partly drawn) [H-9392, 2-O-sulfate-4-deoxy-4-en-iduronic acid-(α-1,4)-2-deoxy-2-N-sulfateglucosamine]",Inhmax,[1],78%
same,DTH,"[1]; at that dose, value in parentheses in the cell taken as positive control, not reported",4.2 ± 0.7 (17.8 ± 0.9) 10^-2 mm
same,dose window,[1]; broadest of the compounds tested,0.000132-0.004 µg/gm
same,"""R"" value","[1]; inhibitory, 0 = no effect",6.5 x 10^4 % x (μg/gm)^-1
same,mice that had become diabetic,"IDDM of NOD mice; at 4.5 months, H-9392 30 ng/mouse, glucosamine 10,000 ng/mouse s.c., all control mice diabetic",less than 50%
same,"mice that had died, in words","IDDM of NOD mice; by age 5 months, H-9392 30 ng, glucosamine 10,000 ng, all control mice had died",none
same,mortality rate,"[2]; 700 rads, by day 30, s.c. 1 day before irradiation and weekly, H-9392 30 ng/mouse, glucosamine 10,000 ng/mouse, saline 100%",40%
same,mice that had died by the thirtieth day after irradiation,"[2]; 750 rads, 30 ng/mouse, three administrations, 5 mice to a group",only one mouse
same,"activity in suppressing mortality after irradiation, in words","[2]; 750 rads, three administrations, 300 ng H-9392, 1 µg glucosamine",moderate activity in suppressing mortality
same,delay of the level of skin graft rejection at 50%,[3]; 3 ng/mouse s.c. one day before grafting and weekly thereafter,5 days
same,"difference at 50% rejection relative to control, in words",[3]; 300 ng/mouse s.c. one day before grafting and weekly thereafter,failed to produce a significant difference
same,Median Protein,LPS-induced uveitis; 32 ng/rat at Day 1,5.2 mg/mL
same,Median Protein,LPS-induced uveitis; 500 ng/rat at Day 1,4.8 mg/mL
same,suppression of the inflammation relative to control,"LPS-induced uveitis; single administration, at either dosage",over 70%
same,Recombinant human TNFα-induced adhesion molecules (O.D 492),"ELAM-1; 50 pg/ml, no TNFα 0.12±0.01",0.6±0.1 O.D 492
same,Recombinant human TNFα-induced adhesion molecules (O.D 492),ELAM-1; 100 pg/ml,0.9±0.07 O.D 492
same,inhibition of the up regulation of EC expression of adhesion molecules induced by TNF-α,ELAM-1; ELAM-1 and ICAM-1 not told apart in the sentence,up to 50%
same,Recombinant human TNFα-induced adhesion molecules (O.D 492),"ICAM-1; 50 pg/ml, no TNFα 0.18±0.01",1.0±0.04 O.D 492
same,Recombinant human TNFα-induced adhesion molecules (O.D 492),ICAM-1; 100 pg/ml,1.4±0.03 O.D 492
same,"Bioassay of TNF Activity, in words",[4],Inconsistent
